Data from patent US6495356B1, “Beryllofluoride analogues of acyl phosphate polypeptides” (priority 1999, dated 2002).

How the values were obtained:
NtrC^WT [1] = target: T1, NtrC^WT (Salmonella typhimurium, UniProt P41789, C30V/C364A); assay type: biochemical; conditions: for Stimulation of the ATPase activity of NtrC^WT: BeCl2 200 μM, AlCl3 200 μM, NaF 5 mM, VO4^3− 1 mM, compared with carbamoyl phosphate 10 mM
T1 construct: made in house
Description: NtrC proteins. […] All full-length NtrC proteins (dimer concentration) were maltose binding protein fusions to NtrC lacking its two natural cysteines (MBP-NtrC^C30V,C364A) or its derivatives.
Assays. […] Mol. Biol. 249, 700-713). Prior to addition of ATP, other components were incubated for 30 min at 25° C. together with the indicated small molecule or combination of small molecules (carbamoyl phosphate, 10 mM; BeCl2, 200 μM; AlCl3, 200 μM; NaF, 5 mM; VO4^3−, 1 mM). The response of the ATPase activity of NtrC to the concentration of NaF or BeCl2 was assessed essentially as above, except the reaction time was 10 min.

NtrC^D86N,S160F = target: T2, NtrC^D86N,S160F (Salmonella typhimurium, UniProt P41789, C30V/C364A/D86N/S160F); assay type: biochemical; conditions: for Effect of single component on ATPase activity of NtrC^D86N,S160F: trace amounts of BeCl2 alone, high concentrations of NaF in absence of BeCl2
T2 construct: made in house

[2] = target: T3, phosphoserine phosphatase (PSP) (Methanocaldococcus jannaschii, UniProt Q58989); experiment: Inhibition of hydrolytic activity of PSP; assay type: biochemical, Methanococcus jannaschii; conditions: for Effect of single component on PSP activity: NaF alone or BeCl2 alone; for Inhibition of hydrolytic activity of PSP: analog generated in situ (NaF plus BeCl2 or AlCl3)
T3 construct: made in house

[3] = system: control region for the fdnG operon; experiment: DNase I footprinting of NarL DNA-binding; parameters: species or system E. coli
[4] = system: mutant forms of NtrC in which D54 has been replaced by A or N; experiment: ATPase activity of NtrC D54 mutants; assay type: biochemical, Salmonella typhimurium; conditions: data not shown
NtrC^WT [5] = target: T1, NtrC^WT; experiment: Formation of open complexes, single-cycle transcription assay; assay type: biochemical; conditions: ≦100 μM BeFx vs 10 mM carbamoyl phosphate
Description: Formation of open complexes was assessed in a single-cycle transcription assay on a supercoiled plasmid template pJES534 (1 nM) (Porter et al. (1993) Genes Dev. 7, 2258-2273; Flashner et al. (1995) J. Mol. Biol. 249, 700-713). NtrC was incubated with 100 μM BeCl2 plus 10 mM NaF or 10 mM carbamoyl phosphate, respectively, at 37° C. for 10 min prior to initiation of the reaction with ATP.
(§1) Transcriptional activation of NtrC was assessed as described in Flashner et al. (1995) J. Mol. Biol. 249, 700-713. DNA-binding of OmpR was assessed as described in Huang and Igo (1996) J. Mol. Biol. 262, 615-628. DNA-binding of NarL was assessed as described in Li et al. (1994) J. Mol. Biol. 241, 150-165 and Darwin et al. (1997) Mol. Microbiol 25, 583-595.

NtrC^D86C,Fe = target: T4, NtrC^D86C,Fe (Salmonella typhimurium, UniProt P41789, C30V/C364A/D86C); experiment: Fe-mediated cleavage of NtrC^D86C,Fe; assay type: biochemical; conditions: BeCl2 200 μM, NaF 10 mM; divalent cation required
T4 construct: made in house
Description: Fe-mediated cleavage of NtrC was assessed as follows: NtrC (5 to 10 μM) was incubated for 30 min at 25° C. with the indicated small molecule or combination of small molecules (carbamoyl phosphate, 10 mM; BeCl2, 200 μM; NaF, 10 mM) in cleavage buffer (10 mM MOPS, pH 8.0, 50 mM KCl, 8 mM MgCl2, 5% glycerol, 1 mM EDTA). Then cleavage was initiated by adding H2O2 and sodium ascorbate to final concentrations of 50 mM and samples were subjected to analysis by SDS-PAGE as described (Greiner etal. (1997) Bioconjugate Chem. 8, 44-48).
We have two direct lines of evidence that BeFx mimics effects of phosphorylation of NtrC structurally as well as functionally. […] Rearrangement at the dimer interface of P-NtrC is postulated to drive the formation of active oligomers. […] By contrast, the BeFx-dependent cleavage did require a divalent cation, and either Mg^2+ or Mn^2+ could serve (FIG. 3B). Thus, like phosphorylation (Parkinson and Kofoid (1992) Annu. Rev. Genet. 26, 71-112; Stock et al. (1995) in Two-component signal transduction, eds. Hoch and Silhavy (ASM, Washington, D.C.), pp. 25-51; Lukat et al. (1992) Proc. Natl. Acad. Sci. USA 89, 718-722; Feng et al. (1992) J. Bacteriol. 174, 6061-6070), the interaction between BeFx and D54 of NtrC requires a divalent cation. […]

[6] = target: FliM peptide (residues 1-16); experiment: FliM peptide binding of CheY (tryptophan fluorescence quenching); parameters: species or system E. coli; conditions: CheY 10 μM; ± 2 mM BeCl2, 20 mM NaF, 20 mM MgCl2; read-out: Dissociation constant for binding to the FliM peptide
Description: FliM peptide binding of CheY was assessed as described in McEvoy et al. (1999) J. Mol. Biol. 289, 1423-1433. Fluorescence intensity of CheY (10 μM) at 340 nm was measured as a function of added FliM peptide in the absence or presence of 2 mM BeCl2, 20 mM NaF and 20 mM MgCl2.
There is no direct in vitro assay for the activity of P-CheY in reversing the direction of flagellar rotation. […] The strength of this binding, which was assessed by quenching of the intrinsic tryptophan fluorescence of CheY, was recently reported to be phosphorylation-dependent (McEvoy et al. (1999) J. Mol. Biol. 289, 1423-1433). […] By this criterion, BeFx.CheY is as active as P-CheY. Like BeFx.CheY, a phosphonate derivative of CheY^D57C appears to be a biochemical analogue of P-CheY, but it is difficult to prepare (Halkides et al. (1998) Biochemistry 37, 13674-13680). Such analogues are extremely useful because the acyl phosphate linkage of P-CheY is exceptionally labile (half life of seconds) (Parkinson and Kofoid (1992) Annu. Rev. Genet. 26, 71-112; Stock et al. (1995) in Two-component signal transduction, eds. Hoch and Silhavy (ASM, Washington, D.C.), pp. 25-51).

[7] = system: ompF promoter-regulatory region; experiment: DNase I footprinting of OmpR binding; parameters: species or system E. coli; conditions: compared with P-OmpR (EnvZ or acetyl phosphate); NaF 10 mM, BeCl2 100 μM
Description: Binding of BeFx.OmpR to the ompF promoter-regulatory region was assessed by DNase I footprinting as described in Huang and Igo (1996) J. Mol. Biol. 262, 615-628 and was compared to that of P-OmpR. The concentrations of OmpR were: 6.4 μM (lanes 1, 6, 11 and 16); 1.6 μM (lanes 2, 7, 12 and 17); 0.4 μM (lanes 3, 8, 13 and 18); 0.1 μM (lanes, 4, 9, 14 and 19); and 0 μM (lanes 5, 10, 15 and 20). For samples in lanes 6-10, OmpR was phosphorylated by MBP-EnvZ (0.3 μM) as described (Huang and Igo (1996) J. Mol. Biol. 262, 615-628). For samples in lanes 11-20, NaF (10 mM) was present and for those in lanes 16-20, BeCl2 (100 μM) was also present. Non-specific DNA-binding observed in the presence of BeCl2 and NaF in lanes 16 and 17 was not observed when OmpR was phosphorylated by EnvZ (lanes 6 and 7) unless much higher concentrations of OmpR were used (see FIG. 4).
as §1

[Be+2].[Cl-].[Cl-] [BeCl2]
BeCl2 concentration at which inhibition of ATPase activity occurred (NtrC^WT [1]; 5 mM NaF): ≥ 200 µM | BeCl2 concentration at which ATPase activity was detected (lowest tested) (NtrC^WT [1]; 5 mM NaF, NtrC^WT 0.4 μM dimer): 5 µM | BeCl2 concentration giving highest ATPase activity (NtrC^WT [1]; 5 mM NaF, NtrC^WT 0.4 μM dimer): 100 µM | Effect of single component on ATPase activity of NtrC^D86N,S160F (NtrC^D86N,S160F): inhibited | Effect of single component on PSP activity [2]: Neither alone had such a profound effect

[F-].[Na+] [NaF]
NaF concentration at which inhibition of ATPase activity occurred (NtrC^WT [1]; 50 μM BeCl2): ≥ 50 mM | NaF concentration below which no ATPase activity was observed (NtrC^WT [1]; 50 μM BeCl2): 1 mM | Effect of single component on ATPase activity of NtrC^D86N,S160F (NtrC^D86N,S160F): inhibited | Effect of single component on PSP activity [2]: Neither alone had such a profound effect

[O]=[V]([O-])([O-])[O-] [VO4^3−, orthovanadate]
Stimulation of the ATPase activity of NtrC^WT (NtrC^WT [1]): neither AlFx nor VO4^3− could substitute | Inhibition of hydrolytic activity of PSP [2]: observed to inhibit PSP activity

ADP.BeFx
Inhibition of the ATPase activity of NtrC^D86N,S160F (NtrC^D86N,S160F; ADP complexes of phosphate analogs): neither ADP.BeFx nor ADP.AlFx nor ADP.VO4^3− appeared to inhibit

BeFx.NarL: beryllofluoride complex of E. coli response regulator NarL
Activity relative to P-NarL ([3]; 200 μM BeCl2, 10 mM NaF and 5 mM MgCl2): less active | Binding to the control region for the fdnG operon ([3]; compared with P-NarL, data not shown): bound similarly

aluminofluoride [AlFx]
Stimulation of the ATPase activity of NtrC^WT (NtrC^WT [1]): neither AlFx nor VO4^3− could substitute | Stimulation of the ATPase activity of unphosphorylated NtrC^D86N,S160F (NtrC^D86N,S160F): but not Alfx | Inhibition of hydrolytic activity of PSP [2]: can substitute for BeF3^− to inhibit PSP activity

beryllofluoride [BeFx]
Stimulation of ATPase activity of D54A / D54N NtrC [4]: failure of BeFx to stimulate | Stimulation of the ATPase activity of NtrC^WT (NtrC^WT [1]): as effective as carbamoyl phosphate | Stimulation of the ATPase activity of unphosphorylated NtrC^D86N,S160F (NtrC^D86N,S160F): substantially stimulated | Activation of transcription by σ54-holoenzyme (open complexes) (NtrC^WT [5]): at least as great as that of the phosphorylated protein | Phosphorylation-dependent Fe-mediated cleavage (NtrC^D86C,Fe): yields an otherwise phosphorylation-dependent cleavage | Inhibition of PSP activity at different temperatures ([2]; 70° C. or room temperature, data not shown): similarly inhibited | Inhibition of hydrolytic activity of PSP [2]: significantly inhibited

B1: BeFx.CheY: beryllofluoride acyl phosphate analogue of E. coli response regulator CheY (protein, UniProt P0AE67 2-129, looked up)
Chemotaxis protein CheY: ADKELKFLVVDDFSTMRRIVRNLLKELGFNNVEEAEDGVDALNKLQAGGYGFVISDWNMPNMDGLELLKTIRADGAMSALPVLMVTAEAKKENIIAAAQAGASGYVVKPFTAATLEEKLNKIFEKLGM
modifications: beryllofluoride complex
Kd [6]: 26 µM

B2: CheY: E. coli CheY, central regulator of the chemotactic response, unmodified inactive form (protein, UniProt P0AE67 2-129, looked up)
Chemotaxis protein CheY: B1 Chemotaxis protein CheY
Kd [6]: 500 µM

B3: BeFx.OmpR: beryllofluoride complex of E. coli response regulator OmpR (protein, UniProt P0AA16 1-239, looked up)
DNA-binding dual …: MQENYKILVVDDDMRLRALLERYLTEQGFQVRSVANAEQMDRLLTRESFHLMVLDLMLPGEDGLSICRRLRSQSNPMPIIMVTAKGEEVDRIVGLEIGADDYIPKPFNPRELLARIRAVLRRQANELPGAPSQEEAVIAFGKFKLNLGTREMFREDEPMPLTSGEFAVLKALVSHPREPLSRDKLMNLARGREYSAMERSIDVQISRLRRMVEEDPAHPRYIQTVWGLGYVFVPDGSKA
modifications: beryllofluoride complex
Binding to regulatory region upstream of the ompF promoter [7]: better than P-OmpR
